Laboratory results from US10696677B2 (Research Triangle Institute, priority 2016, dated 2020).
Where two headings read alike, the source gives them in different places.

Key:
[1] = target: hCB1 (Homo sapiens, UniProt P21554); test: radioligand displacement binding at CB1 (membranes of CHO-K1 cells over-expressing receptor)
Experimental: (§1) All compounds were characterized by H^1 NMR and evaluated using a calcium mobilization assay. […] Further characterization of select compounds was performed using radioligand displacement of [3H]1 and equilibrium dissociation constant (Ki) values were determined.

[2] = target: hCB2 (Homo sapiens, UniProt P34972); test: radioligand displacement binding at CB2 ([3H]CP55940, membranes of CHO-K1 cells over-expressing receptor)
Experimental: as §1

[3] = test system: MDCK; test: MDCK BBB Assay; type: in vitro ADME; conditions: for % Permeable: MDCK BBB assay
[4] = read-out: Binding affinity (Ki) at hCB1, radioligand displacement, CHO-K1 membranes, average of 3-6 measurements
[5] = read-out: Binding affinity (Ki) at hCB2, displacement of [3H]CP55940, CHO-K1 membranes, average of 3-6 measurements

hCB1, sequence (P21554 whole entry): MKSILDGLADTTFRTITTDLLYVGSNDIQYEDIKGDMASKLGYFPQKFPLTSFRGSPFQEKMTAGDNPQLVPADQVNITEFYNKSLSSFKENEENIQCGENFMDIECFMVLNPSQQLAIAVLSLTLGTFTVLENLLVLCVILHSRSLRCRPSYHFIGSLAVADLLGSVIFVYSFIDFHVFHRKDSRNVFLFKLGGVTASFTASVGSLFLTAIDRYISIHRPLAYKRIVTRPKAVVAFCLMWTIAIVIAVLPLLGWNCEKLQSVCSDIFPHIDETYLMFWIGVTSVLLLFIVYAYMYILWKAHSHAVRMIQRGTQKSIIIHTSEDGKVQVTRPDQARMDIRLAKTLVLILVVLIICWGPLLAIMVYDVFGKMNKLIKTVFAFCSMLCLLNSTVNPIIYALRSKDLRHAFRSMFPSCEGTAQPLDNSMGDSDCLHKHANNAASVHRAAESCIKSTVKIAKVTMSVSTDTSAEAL
hCB2, sequence (P34972 whole entry): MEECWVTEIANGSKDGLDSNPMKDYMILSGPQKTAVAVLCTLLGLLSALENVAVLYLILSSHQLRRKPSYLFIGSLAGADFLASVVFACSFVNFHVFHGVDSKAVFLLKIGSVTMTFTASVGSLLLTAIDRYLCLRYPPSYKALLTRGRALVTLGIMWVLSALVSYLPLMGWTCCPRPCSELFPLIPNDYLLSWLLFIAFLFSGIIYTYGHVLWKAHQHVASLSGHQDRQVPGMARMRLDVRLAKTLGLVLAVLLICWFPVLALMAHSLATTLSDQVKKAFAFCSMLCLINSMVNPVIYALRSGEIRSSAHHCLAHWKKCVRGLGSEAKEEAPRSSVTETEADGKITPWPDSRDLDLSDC

SMILES | melting point | Ki [2, 5] | % Permeable [3] | other results
O=C(Nc1ccccc1F)N1CCN(c2ncnc3c2nc(-c2ccccc2Cl)n3-c2ccc(Cl)cc2)CC1 [Compound 56, 4-[8-(2-Chlorophenyl)-9-(4-chlorophenyl)-9H-purin-6-yl]-N-(2-fluorophenyl)piperazine-1-carboxamide] | 214 to 215 °C | 1300 nM | – | Ki [1, 4]: 6 nM
O=C(C1COc2ccccc2O1)N1CCN(c2ncnc3c2nc(-c2ccccc2Cl)n3-c2ccc(Cl)cc2)CC1 (stereo not shown) [Compound 61, 8-(2-Chlorophenyl)-9-(4-chlorophenyl)-6-[4-(2,3-dihydro-1,4-benzodioxin-2-ylcarbonyl)piperazin-1-yl]-9H-purine] | – | 606 nM | 0% | Ki [1]: 5.3 nM
Cc1ccccc1CN1CCN(c2ncnc3c2nc(-c2ccccc2Cl)n3-c2ccc(Cl)cc2)CC1 [Compound 100, 8-(2-Chlorophenyl)-9-(4-chlorophenyl)-6-[4-(2-methylbenzyl)piperazin-1-yl]-9H-purine] | – | – | – | Ki [2]: 1250 nM
O=S(=O)(C1CC1)N1CCN(c2ncnc3c2nc(-c2ccccc2Cl)n3-c2ccc(Cl)cc2)CC1 [Compound 84, 8-(2-Chlorophenyl)-9-(4-chlorophenyl)-6-[4-(cyclopropylsulfonyl)piperazin-1-yl]-9H-purine] | – | 2300 nM | 4% | Ki [1]: 5.3 nM
CCS(=O)(=O)N1CCN(c2ncnc3c2nc(-c2ccccc2Cl)n3-c2ccc(Cl)cc2)CC1 [Compound 78, 8-(2-Chlorophenyl)-9-(4-chlorophenyl)-6-[4-(ethylsulfonyl)piperazin-1-yl]-9H-purine] | – | 980 nM | 18% | Ki [1]: 2.7 nM
O=S(=O)(NC1CCN(c2ncnc3c2nc(-c2ccccc2Cl)n3-c2ccc(Cl)cc2)CC1)c1ccc(F)c(F)c1 [Compound 7, N-{1-[8-(2-Chlorophenyl)-9-(4-chlorophenyl)-9H-purin-6-yl]piperidin-4-yl}-3,4-difluorobenzene-1-sulfonamide] | 183 to 184 °C | – | 0% | MDCK BBB Assay (Basolateral/Apical Peak Area Ratio) Mean ([3]; MDCK cells): 0
O=C(NC1CCCCC1)N1CCN(c2ncnc3c2nc(-c2ccccc2Cl)n3-c2ccc(Cl)cc2)CC1 [Compound 119, 4-[8-(2-chlorophenyl)-9-(4-chlorophenyl)-9H-purin-6-yl]-N-cyclohexylpiperazine-1-carboxamide] | 228 to 229 °C | 620 nM | – | Ki [1, 4]: 1.4 nM
O=C(N1CCN(c2ncnc3c2nc(-c2ccccc2Cl)n3-c2ccc(Cl)cc2)CC1)C(F)(F)F [Compound 87, 8-(2-Chlorophenyl)-9-(4-chlorophenyl)-6-[4-(trifluoroacetyl)piperazin-1-yl]-9H-purine] | – | – | ~100% | Ki [1, 4]: 1 nM; Ki [2]: 134 nM
N=C(Nc1ccc(F)cc1)N1CCN(c2ncnc3c2nc(-c2ccccc2Cl)n3-c2ccc(Cl)cc2)CC1 [Compound 116, 4-[8-(2-chlorophenyl)-9-(4-chlorophenyl)-9H-purin-6-yl]-N-(4-fluorophenyl)piperazine-1-carboximidamide] | – | – | – | Ki [2]: > 6000 nM
O=C(Nc1ccccc1F)NC1CCN(c2ncnc3c2nc(-c2ccccc2Cl)n3-c2ccc(C(F)(F)F)nc2)CC1 [Compound 20, 3-{1-[8-(2-Chlorophenyl)-9-[6-(trifluoromethyl)pyridin-3-yl]-9H-purin-6-yl]piperidin-4-yl}-1-(2-fluorophenyl)urea] | 227 to 228 °C | – | – | –
O=C(Nc1ccc(F)cc1F)NC1CCN(c2ncnc3c2nc(-c2ccccc2Cl)n3-c2ccc(Cl)cc2)CC1 [Compound 22, 3-{1-[8-(2-Chlorophenyl)-9-(4-chlorophenyl)-9H-purin-6-yl]piperidin-4-yl}-1-(2,4-difluorophenyl)urea] | 140 to 142 °C | – | – | –
CC(C)(C)OC(=O)N1CCN(c2ncnc3c2nc(-c2ccccc2Cl)n3-c2ccc(Cl)cc2)CC1 [Compound 58, tert-Butyl 4-[8-(2-Chlorophenyl)-9-(4-chlorophenyl)-9H-purin-6-yl]piperazine-1-carboxylate] | – | – | 3% | Ki [2]: 3350 nM
CCCS(=O)(=O)N1CCN(c2ncnc3c2nc(-c2ccccc2Cl)n3-c2ccc(Cl)cc2)CC1 [Compound 79, 8-(2-Chlorophenyl)-9-(4-chlorophenyl)-6-[4-(propylsulfonyl)piperazin-1-yl]-9H-purine] | – | 848 nM | 6% | Ki [1, 4]: 1.2 nM
CS(=O)(=O)N1CCN(c2ncnc3c2nc(-c2ccccc2Cl)n3-c2ccc(Cl)cc2)CC1 [Compound 86, 8-(2-Chlorophenyl)-9-(4-chlorophenyl)-6-[4-(methylsulfonyl)piperazin-1-yl]-9H-purine] | – | – | 14% | Ki [1]: 24.4 nM; Ki [2]: 1650 nM
O=C(NCC1CCCCC1)N1CCN(c2ncnc3c2nc(-c2ccccc2Cl)n3-c2ccc(Cl)cc2)CC1 [Compound 120, 4-[8-(2-chlorophenyl)-9-(4-chlorophenyl)-9H-purin-6-yl]-N-(cyclohexylmethyl)piperazine-1-carboxamide] | 105 to 107 °C | 740 nM | – | Ki [1, 4]: 43 nM
O=C(Nc1ccccc1)N1CCN(c2ncnc3c2nc(-c2ccccc2Cl)n3-c2ccc(Cl)cc2)CC1 [Compound 121, 4-[8-(2-chlorophenyl)-9-(4-chlorophenyl)-9H-purin-6-yl]-N-phenylpiperazine-1-carboxamide] | 121 to 123 °C | 2400 nM | – | Ki [1, 4]: 6 nM
O=C(NC1(C(F)(F)F)CCCC1)N1CCN(c2ncnc3c2nc(-c2ccccc2Cl)n3-c2ccc(Cl)cc2)CC1 [Compound 118, 4-[8-(2-Chlorophenyl)-9-(4-chlorophenyl)-9H-purin-6-yl]-N-[1-(trifluoromethyl)cyclopentyl]piperazine-1-carboxamide] | 202 to 204 °C | 1300 nM | – | Ki [1, 4]: 24 nM
Cc1cc(-n2c(-c3ccccc3Cl)nc3c(N4CCC(NS(=O)(=O)c5ccc(F)c(F)c5)CC4)ncnc32)no1 [Compound 11, N-{1-[8-(2-Chlorophenyl)-9-(5-methyl-1,2-oxazol-3-yl)-9H-purin-6-yl]piperidin-4-yl}-3,4-difluorobenzene-1-sulfonamide] | 180 to 182 °C | – | – | –
O=C(NCC1CCC(F)(F)CC1)NC1CCN(c2ncnc3c2nc(-c2ccccc2Cl)n3-c2ccc(Cl)cc2)CC1 [Compound 127, 3-{1-[8-(2-Chlorophenyl)-9-(4-chlorophenyl)-9H-purin-6-yl]piperidin-4-yl}-1-[(4,4-difluorocyclohexyl)methyl]urea] | 135 to 137 °C | – | – | –
CC1(NC(=O)NC2CCN(c3ncnc4c3nc(-c3ccccc3Cl)n4-c3ccc(Cl)cc3)CC2)CCC(F)(F)CC1 [Compound 126, 3-{1-[8-(2-Chlorophenyl)-9-(4-chlorophenyl)-9H-purin-6-yl]piperidin-4-yl}-1-(4,4-difluoro-1-methylcyclohexyl)urea] | 160 to 162 °C | – | – | –
O=C(NCC1CCCCC1)NC1CCN(c2ncnc3c2nc(-c2ccccc2Cl)n3-c2ccc(C(F)(F)F)nc2)CC1 [Compound 16, 3-{1-[8-(2-Chlorophenyl)-9-[6-(trifluoromethyl)pyridin-3-yl]-9H-purin-6-yl]piperidin-4-yl}-1-(cyclohexylmethyl)urea] | 230 to 232 °C | – | – | –
Cc1cc(NC(=O)N2CCN(c3ncnc4c3nc(-c3ccccc3Cl)n4-c3ccc(Cl)cc3)CC2)no1 [Compound 50] | 230 to 231 °C | – | – | –
CCCCC(=O)N1CCN(c2ncnc3c2nc(-c2ccccc2Cl)n3-c2ccc(Cl)cc2)CC1 [Compound 103, 8-(2-Chlorophenyl)-9-(4-chlorophenyl)-6-(4-pentanoylpiperazin-1-yl)-9H-purine] | – | 403 nM | 0% | Ki [1]: 5.5 nM
Cn1ccc(-n2c(-c3ccccc3Cl)nc3c(N4CCC(NS(=O)(=O)c5ccc(F)c(F)c5)CC4)ncnc32)n1 [Compound 13, N-{1-[8-(2-Chlorophenyl)-9-(1-methyl-1H-pyrazol-3-yl)-9H-purin-6-yl]piperidin-4-yl}-3,4-difluorobenzene-1-sulfonamide] | 206 to 208 °C | – | – | –
FC(F)(F)Oc1ccccc1CN1CCN(c2ncnc3c2nc(-c2ccccc2Cl)n3-c2ccc(Cl)cc2)CC1 [Compound 112, 8-(2-Chlorophenyl)-9-(4-chlorophenyl)-6-{4-[2-(trifluoromethoxy)benzyl]piperazin-1-yl}-9H-purine] | 110 to 111 °C | – | – | Ki [2]: 76000 nM
O=S(=O)(NC1CCN(c2ncnc3c2nc(-c2ccccc2Cl)n3-c2ccc(C(F)(F)F)nc2)CC1)c1ccc(F)c(F)c1 [Compound 10, N-{1-[8-(2-Chlorophenyl)-9-[6-(trifluoromethyl)pyridin-3-yl]-9H-purin-6-yl]piperidin-4-yl}-3,4-difluorobenzene-1-sulfonamide] | 214 to 215 °C | – | – | –
O/N=C(\c1ccc(F)cc1)C1CCN(c2ncnc3c2nc(-c2ccccc2Cl)n3-c2ccc(Cl)cc2)CC1 [Compound 28, (Z)-{1-[8-(2-chlorophenyl)-9-(4-chlorophenyl)-9H-purin-6-yl]piperidin-4-yl}(4-fluorophenyl)methanone oxime] | – | – | – | Ki [1]: 3 nM; Ki [2]: 11000 nM
O=C(Nc1ccccc1F)NC1CCN(c2ncnc3c2nc(-c2ccccc2Cl)n3-c2ccc(OC(F)F)nc2)CC1 [Compound 21, 3-{1-[8-(2-Chlorophenyl)-9-[6-(difluoromethoxy)pyridin-3-yl]-9H-purin-6-yl]piperidin-4-yl}-1-(2-fluorophenyl)urea] | 140 to 142 °C | – | – | –
O=C(NC1CCN(c2ncnc3c2nc(-c2ccccc2Cl)n3-c2ccc(Cl)cc2)CC1)NC1CCC(F)(F)CC1 [Compound 124, 3-{1-[8-(2-Chlorophenyl)-9-(4-chlorophenyl)-9H-purin-6-yl]piperidin-4-yl}-1-(4,4-difluorocyclohexyl)urea] | 228 to 229 °C | – | – | –
